Laboratory results: the supplement of paper PMC10331698
± gives the standard deviation of the averaged measurements.

Tests used:
Assay in all cases: level (log10 ratio to DMSO vehicle control); higher = higher biomarker level / cell amount than vehicle control
[1] = compound: O=C(O)C(F)(F)C(F)(F)C(F)(F)OC(F)(F)F [Perfluoro(4-methoxybutanoic) acid] (in DMSO)
Method: (§1)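 BioMAP Diversity Plus panel of 12 human primary cell co-culture systems (3C, 4H, LPS, SAg, BT, BF4T, BE3C, CASM3C, HDF3CGF, KF3CT, MyoF, Mphg). Compounds were added 1 h before stimulation and left for 24 h (MyoF 48 h; BT 72 h for soluble read-outs or 6 d for IgG). Biomarkers were read by ELISA, cytotoxicity by SRB, PBMC viability and proliferation by Alamar Blue. Each well value was divided by the mean of 8 DMSO control wells on the same plate and log10 transformed; duplicate blinded samples were tested at 4 concentrations.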

[2] = compound: OCC(F)(F)C(F)(F)C(F)(F)C(F)(F)C(F)(F)C(F)(F)CO [1H,1H,8H,8H-Perfluorooctane-1,8-diol] (in DMSO)
Method: as §1

[3] = compound: C[C@@H]1C[C@H]2[C@@H]3CCC4=CC(=O)C=C[C@]4(C)[C@@]3(F)[C@@H](O)C[C@]2(C)[C@@]1(O)C(=O)COP(=O)(O)O [Dexamethasone sodium phosphate] (in DMSO)
Method: as §1

Perfluorononanoic acid = compound: O=C(O)C(F)(F)C(F)(F)C(F)(F)C(F)(F)C(F)(F)C(F)(F)C(F)(F)C(F)(F)F [Perfluorononanoic acid] (in DMSO)
Method: as §1

[4] = compound: CO[Si](C)(CCC(F)(F)C(F)(F)C(F)(F)C(F)(F)C(F)(F)C(F)(F)F)OC [Dimethoxymethyl((perfluorohexyl)ethyl)silane] (in DMSO)
Method: as §1

[5] = compound: O=C(O)C(F)(OC(F)(F)C(F)(F)C(F)(F)F)C(F)(F)F [Ammonium perfluoro-2-methyl-3-oxahexanoate] (in Water)
Method: as §1

Test System | level (log10) ([1]; 6700 nM) | level (log10) ([1]; 20000 nM) | level (log10) ([1]; 60000 nM) | level (log10) ([2]; 6700 nM) | level (log10) ([2]; 20000 nM) | level (log10) ([2]; 60000 nM) | level (log10) ([3]; 1500 nM) | level (log10) ([3]; 4400 nM) | level (log10) ([3]; 13000 nM) | level (log10) ([3]; 40000 nM) | level (log10) (Perfluorononanoic acid; 6700 nM) | level (log10) (Perfluorononanoic acid; 20000 nM) | level (log10) ([4]; 6700 nM) | level (log10) ([4]; 20000 nM) | level (log10) ([5]; 6700 nM) | level (log10) ([5]; 20000 nM) | level (log10) ([5]; 60000 nM)
BF4T:Keratin 8/18 | 0.0035 ± 0.032 | 0.001 ± 0.05 | 0.013 ± 0.045 | -0.0005 ± 0.0021 | 0.021 ± 0.0014 | -0.003 ± 0.0042 | 0.011 ± 0.047 | -0.0015 ± 0.013 | -0.0105 ± 0.019 | -0.0025 ± 0.015 | -0.0155 ± 0.016 | 0.0075 ± 0.023 | 0.029 ± 0.034 | 0.006 ± 0.016 | -0.0205 ± 0.0078 | -0.008 ± 0.035 | -0.022 ± 0.014
BF4T:SRB | -0.0105 ± 0.00071 | -0.0135 ± 0.0064 | -0.0105 ± 0.0035 | -0.002 ± 0.0042 | -0.0005 ± 0.0035 | -0.007 ± 0.0071 | 0.0155 ± 0.0078 | 0.0005 ± 0.0064 | 0.01 ± 0.013 | 0.0135 ± 0.016 | -0.002 ± 0.0014 | -0.028 ± 0.0014 | -0.0055 ± 0.005 | -0.0045 ± 0.005 | -0.003 ± 0.013 | 0 ± 0.0014 | 0.0135 ± 0.022
BF4T:CCL26/Eotaxin-3 | 0.0195 ± 0.06 | 0.0005 ± 0.0035 | 0.0065 ± 0.0021 | 0.004 ± 0.0057 | -0.009 ± 0.033 | -0.019 ± 0.018 | -0.0755 ± 0.043 | -0.134 ± 0.086 | -0.115 ± 0.012 | -0.122 ± 0.03 | -0.0345 ± 0.037 | -0.288 ± 0.0085 | 0.0285 ± 0.011 | -0.0075 ± 0.0092 | -0.128 ± 0.03 | -0.0995 ± 0.06 | -0.137 ± 0.03
BT:sTNF-alpha | -0.028 ± 0.0042 | -0.0245 ± 0.046 | 0.0445 ± 0.016 | -0.057 ± 0.045 | -0.0705 ± 0.036 | -0.097 ± 0.18 | -0.575 ± 0.0078 | -0.553 ± 0.0099 | -0.525 ± 0.13 | -0.566 ± 0.13 | -0.002 ± 0.038 | 0.0115 ± 0.073 | -0.0935 ± 0.15 | 0.094 ± 0.11 | -0.035 ± 0.037 | 0.013 ± 0.034 | 0.0045 ± 0.093
LPS:sPGE2 | -0.0115 ± 0.026 | 0.01 ± 0.047 | -0.012 ± 0.017 | -0.0255 ± 0.012 | 0.022 ± 0.0057 | -0.0015 ± 0.016 | -0.028 ± 0.028 | -0.0525 ± 0.015 | -0.121 ± 0.044 | -0.155 ± 0.016 | -0.0695 ± 0.00071 | -0.144 ± 0.0064 | 0 ± 0.042 | -0.0145 ± 0.035 | 0.093 ± 0.061 | 0.0575 ± 0.039 | 0.0765 ± 0.018
BE3C:CXCL10/IP-10 | -0.0045 ± 0.0078 | -0.001 ± 0.0085 | 0.0045 ± 0.0035 | 0.003 ± 0.013 | -0.006 ± 0.0014 | -0.018 ± 0.0028 | 0.0215 ± 0.021 | 0.014 ± 0.028 | 0 ± 0.02 | -0.0035 ± 0.016 | -0.039 ± 0.025 | -0.145 ± 0.031 | -0.0025 ± 0.0078 | -0.0065 ± 0.0021 | -0.0095 ± 0.013 | -0.001 ± 0.0042 | 0.0115 ± 0.0092
BF4T:MMP-3 | 0.0015 ± 0.012 | -0.008 ± 0.014 | 0.0155 ± 0.0078 | -0.013 ± 0.0042 | 0.018 ± 0.013 | -0.0095 ± 0.0021 | 0.0565 ± 0.083 | 0.006 ± 0.061 | -0.03 ± 0.05 | 0.0185 ± 0.033 | 0.0005 ± 0.035 | 0.015 ± 0.0071 | 0.0005 ± 0.0035 | -0.015 ± 0.0099 | 0.0335 ± 0.047 | 0.018 ± 0.0057 | 0.048 ± 0.014
4H:CD87/uPAR | 0.0495 ± 0.039 | 0.035 ± 0.048 | 0.046 ± 0.04 | -0.013 ± 0.0014 | -0.0065 ± 0.0021 | -0.03 ± 0.017 | -0.0055 ± 0.0021 | -0.0195 ± 0.022 | -0.024 ± 0.086 | -0.0375 ± 0.094 | -0.0245 ± 0.026 | -0.012 ± 0.0071 | 0.004 ± 0.028 | 0.0195 ± 0.013 | -0.033 ± 0.027 | -0.024 ± 0.033 | -0.06 ± 0.0014
SAg:CXCL8/IL-8 | 0.007 ± 0.0085 | 0.005 ± 0.017 | 0.01 ± 0.034 | -0.0205 ± 0.04 | -0.0245 ± 0.019 | 0.0095 ± 0.035 | -0.0245 ± 0.039 | -0.0475 ± 0.039 | -0.097 ± 0.075 | -0.137 ± 0.087 | -0.0165 ± 0.029 | 0.0095 ± 0.036 | -0.0085 ± 0.012 | 0.0145 ± 0.018 | 0.103 ± 0.0085 | 0.099 ± 0.0085 | 0.167 ± 0.047
4H:CCL26/Eotaxin-3 | 0.018 ± 0.0085 | 0.0205 ± 0.013 | 0.0245 ± 0.023 | 0.0095 ± 0.019 | 0.0125 ± 0.019 | 0.0125 ± 0.0021 | -0.0175 ± 0.0035 | -0.0315 ± 0.0035 | -0.0285 ± 0.029 | -0.052 ± 0.078 | -0.008 ± 0.0071 | -0.03 ± 0.018 | -0.0125 ± 0.023 | 0.011 ± 0.014 | -0.0615 ± 0.0021 | -0.064 ± 0.0014 | -0.118 ± 0.012
3C:CD87/uPAR | -0.03 ± 0.058 | -0.035 ± 0.051 | -0.0265 ± 0.04 | -0.0245 ± 0.026 | -0.0125 ± 0.0092 | -0.019 ± 0.0028 | 0.0545 ± 0.013 | 0.048 ± 0.02 | 0.0455 ± 0.00071 | 0.016 ± 0.016 | 0.002 ± 0.011 | -0.018 ± 0.016 | -0.002 ± 0.0071 | -0.026 ± 0.021 | -0.016 ± 0.054 | -0.0085 ± 0.028 | -0.042 ± 0.021
BE3C:CXCL8/IL-8 | 0.0325 ± 0.028 | 0.0325 ± 0.016 | 0.0655 ± 0.042 | -0.021 ± 0.027 | -0.0325 ± 0.023 | -0.0245 ± 0.066 | -0.094 ± 0.044 | -0.137 ± 0.015 | -0.171 ± 0.0092 | -0.157 ± 0.011 | -0.03 ± 0.0057 | -0.175 ± 0.0042 | -0.006 ± 0.0085 | 0.038 ± 0.038 | -0.013 ± 0.071 | 0.0005 ± 0.011 | 0.0195 ± 0.011
SAg:SRB | -0.0145 ± 0.0078 | -0.023 ± 0.0099 | -0.017 ± 0.021 | 0.009 ± 0.0085 | 0.0045 ± 0.005 | 0.0025 ± 0.021 | 0.0105 ± 0.0092 | 0.0005 ± 0.005 | 0.005 ± 0.016 | 0.003 ± 0.025 | -0.01 ± 0.0085 | -0.002 ± 0.0099 | -0.0125 ± 0.013 | 0.0045 ± 0.0035 | -0.019 ± 0.0042 | -0.01 ± 0.0014 | -0.0285 ± 0.0021
BE3C:EGFR | 0.016 ± 0.0071 | 0.0035 ± 0.015 | 0.009 ± 0.016 | -0.019 ± 0.024 | -0.01 ± 0.017 | -0.0315 ± 0.005 | 0.008 ± 0.042 | -0.0035 ± 0.013 | -0.011 ± 0.0071 | -0.0145 ± 0.005 | -0.023 ± 0.028 | -0.0285 ± 0.03 | 0.001 ± 0.011 | -0.01 ± 0.017 | -0.016 ± 0.023 | -0.009 ± 0.0085 | 0.005 ± 0.0057
4H:CD62P/P-selectin | 0.0035 ± 0.0078 | 0.033 ± 0.068 | -0.005 ± 0.059 | -0.039 ± 0.0028 | 0.004 ± 0.011 | 0.0355 ± 0.0021 | -0.0355 ± 0.037 | -0.038 ± 0.0042 | -0.022 ± 0.011 | -0.033 ± 0.047 | 0.015 ± 0.0099 | 0.0605 ± 0.011 | -0.0095 ± 0.033 | -0.0135 ± 0.036 | -0.0475 ± 0.012 | -0.0065 ± 0.03 | -0.054 ± 0.048
SAg:CD40 | -0.029 ± 0.023 | -0.034 ± 0.045 | -0.034 ± 0.052 | -0.024 ± 0.05 | -0.0115 ± 0.064 | -0.0525 ± 0.043 | -0.044 ± 0.0085 | -0.072 ± 0.05 | -0.0535 ± 0.03 | -0.074 ± 0.081 | -0.0285 ± 0.044 | -0.057 ± 0.02 | -0.0095 ± 0.0078 | -0.022 ± 0.0042 | -0.019 ± 0.013 | -0.017 ± 0.0014 | -0.0555 ± 0.077
BT:sIL-17F | -0.0085 ± 0.059 | 0.07 ± 0.017 | -0.037 ± 0.073 | -0.0015 ± 0.03 | -0.158 ± 0.12 | -0.208 ± 0.0092 | -0.259 ± 0.0099 | -0.251 ± 0.058 | -0.262 ± 0.012 | -0.239 ± 0.047 | -0.0305 ± 0.0064 | 0.002 ± 0.15 | 0.074 ± 0.0014 | 0.102 ± 0.064 | 0.111 ± 0.016 | 0.116 ± 0.012 | 0.0455 ± 0.012
